From PubChem BioAssay (NCI)
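Cultured in 96-well plates, cells were exposed to test compound for 48 hours across five concentrations. TGI: total growth inhibition.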

What was measured:
Assay in all cases: growth of human tumour cells (NCI), 48 h
ACHN renal = system: ACHN renal
M14 melanoma = system: M14 melanoma
KM20L2 colon = system: KM20L2 colon
HCC-2998 colon = system: HCC-2998 colon
UO-31 renal = system: UO-31 renal
COLO 205 colon = system: COLO 205 colon
HOP-92 NSCLC = system: HOP-92 NSCLC
SK-OV-3 ovarian = system: SK-OV-3 ovarian
SW-620 colon = system: SW-620 colon
LOX IMVI melanoma = system: LOX IMVI melanoma
UACC-257 melanoma = system: UACC-257 melanoma
EKVX NSCLC = system: EKVX NSCLC
SK-MEL-5 melanoma = system: SK-MEL-5 melanoma
RXF-631 renal = system: RXF-631 renal
DLD-1 colon = system: DLD-1 colon
U251 CNS = system: U251 CNS
HT29 colon = system: HT29 colon
HCT-116 colon = system: HCT-116 colon
HOP-62 NSCLC = system: HOP-62 NSCLC
DMS 114 small cell lung = system: DMS 114 small cell lung
SNB-75 CNS = system: SNB-75 CNS
NCI-H23 lung = system: NCI-H23 lung
MOLT-4 leukemia = system: MOLT-4 leukemia
A549 NSCLC = system: A549 NSCLC
NCI-H460 lung = system: NCI-H460 lung
SNB-78 CNS = system: SNB-78 CNS
RXF 393 renal = system: RXF 393 renal
CCRF-CEM leukemia = system: CCRF-CEM leukemia
UACC-62 melanoma = system: UACC-62 melanoma
NCI-H522 lung = system: NCI-H522 lung
MALME-3M melanoma = system: MALME-3M melanoma
OVCAR-5 ovarian = system: OVCAR-5 ovarian
NCI-H226 lung = system: NCI-H226 lung
SK-MEL-28 melanoma = system: SK-MEL-28 melanoma
SF-539 CNS = system: SF-539 CNS
HL-60(TB) leukemia = system: HL-60(TB) leukemia
XF 498 CNS = system: XF 498 CNS
786-0 renal = system: 786-0 renal
TK-10 renal = system: TK-10 renal
RPMI-8226 leukemia = system: RPMI-8226 leukemia
OVCAR-8 ovarian = system: OVCAR-8 ovarian
SF-268 CNS = system: SF-268 CNS
OVCAR-3 ovarian = system: OVCAR-3 ovarian
M19-MEL melanoma = system: M19-MEL melanoma
IGROV1 ovarian = system: IGROV1 ovarian
SK-MEL-2 melanoma = system: SK-MEL-2 melanoma
SF-295 CNS = system: SF-295 CNS
KM12 colon = system: KM12 colon
K-562 leukemia = system: K-562 leukemia
LXFL 529 NSCLC = system: LXFL 529 NSCLC
SNB-19 CNS = system: SNB-19 CNS
SR leukemia = system: SR leukemia
OVCAR-4 ovarian = system: OVCAR-4 ovarian
CAKI-1 renal = system: CAKI-1 renal
DMS 273 small cell lung = system: DMS 273 small cell lung
SN12C renal = system: SN12C renal
A498 renal = system: A498 renal
HCT-15 colon = system: HCT-15 colon

Measured: TGI

C/C(CC(=O)Nc1ccccc1[N+](=O)[O-])=N\NC(N)=O
not listed: SNB-19 CNS | SR leukemia | OVCAR-4 ovarian | CAKI-1 renal | DMS 273 small cell lung | SN12C renal | A498 renal | HCT-15 colon
> 100 µM: all other assays above

CN(O)C(=O)c1ccccc1
not listed: EKVX NSCLC | SNB-78 CNS | SK-MEL-2 melanoma | A498 renal | HCT-15 colon
> 100 µM: all other assays above

O=C(c1ccccc1)N1C2C3CC(OCc4ccccc4)(OCc4ccccc4)C(O3)C21 (centres undefined)
not listed: UACC-257 melanoma | HT29 colon | OVCAR-3 ovarian | SF-295 CNS | KM12 colon | SR leukemia | DMS 273 small cell lung
> 100 µM: all other assays above
